Measured values from PubChem BioAssay AID342 (DTP/NCI, 2004).
Where “and” joins values, the source holds several entries; their conditions need not be identical. Identical values can stand only once.

Tested on: Swiss mice, Sarcoma 180 sc, mean tumor weight T/C
Experiment: NCI In Vivo Anticancer Drug Screen. Data for tumor model Sarcoma 180 (subcutaneous) in Swiss mice
Details: endpoint: mean tumor weight, higher = larger tumour
How it was run: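 Readout is the ratio of treated-group measurement to vehicle-control measurement (T/C), based on survival or tumor size in mice carrying transplanted tumors.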

`OCC1OC(n2cnc3c(Cl)ncnc32)C(O)C1O` (centres undefined) was tested, and the T/C (dose: 5.9 mg/kg/injection, schedule: Q01DX007 (ip), vehicle: carboxymethylcellulose (CMC)) was 102 % of control, the T/C (dose: 11.75 mg/kg/injection, schedule: Q01DX007 (ip), vehicle: carboxymethylcellulose (CMC)) was 104 % of control and the T/C (dose: 23.5 mg/kg/injection, schedule: Q01DX007 (ip), vehicle: carboxymethylcellulose (CMC)) was 105 % of control. The T/C (dose: 47.0 mg/kg/injection, schedule: Q01DX007 (ip), vehicle: carboxymethylcellulose (CMC)) was 113 % of control, the T/C (dose: 50.0 mg/kg/injection, schedule: Q01DX007 (ip), vehicle: carboxymethylcellulose (CMC)) was 75 % of control and the T/C (dose: 94.0 mg/kg/injection, schedule: Q01DX007 (ip), vehicle: carboxymethylcellulose (CMC)) was 38 % of control. The T/C (dose: 100.0 mg/kg/injection, schedule: Q01DX007 (ip), vehicle: carboxymethylcellulose (CMC)) was 110 % of control, the T/C (dose: 187.5 mg/kg/injection, schedule: Q01DX007 (ip), vehicle: carboxymethylcellulose (CMC)) was 29 % of control and the T/C (dose: 200.0 mg/kg/injection, schedule: Q01DX007 (ip), vehicle: carboxymethylcellulose (CMC)) was 102 % of control. The T/C (dose: 375.0 mg/kg/injection, schedule: Q01DX007 (ip), vehicle: carboxymethylcellulose (CMC)) was 36 % of control, the T/C (dose: 400.0 mg/kg/injection, schedule: Q01DX007 (ip), vehicle: carboxymethylcellulose (CMC)) was 70 % of control and the T/C (dose: 750.0 mg/kg/injection, schedule: Q01DX007 (ip), vehicle: carboxymethylcellulose (CMC)) was 36 % of control. The T/C (dose: 800.0 mg/kg/injection, schedule: Q01DX007 (ip), vehicle: carboxymethylcellulose (CMC)) was 122 % of control.
`CC(=O)[C@@]1(O)CC[C@H]2[C@@H]3C[C@H](C)C4=CC(=O)C=C[C@]4(C)[C@@]3(F)[C@@H](O)C[C@@]21C` was tested, and the T/C (dose: 6.9 mg/kg/injection, schedule: Q01DX007 (sc), vehicle: steriod suspending solution) was 102 % of control, the T/C (dose: 16.0 mg/kg/injection, schedule: Q01DX007 (sc), vehicle: steriod suspending solution) was 76 % of control and the T/C (dose: 17.0 mg/kg/injection, schedule: Q01DX007 (sc), vehicle: steriod suspending solution) was 60 % of control. The T/C (dose: 24.0 mg/kg/injection, schedule: Q01DX007 (sc), vehicle: steriod suspending solution) was 78 % of control, the T/C (dose: 26.0 mg/kg/injection, schedule: Q01DX007 (sc), vehicle: steriod suspending solution) was 19 % of control and 23 % of control and the T/C (dose: 27.5 mg/kg/injection, schedule: Q01DX007 (sc), vehicle: steriod suspending solution) was 65 % of control. For the same molecule, the T/C (dose: 27.5 mg/kg/injection, schedule: Q#A X014 (sc), vehicle: steriod suspending solution) was 33 % of control, the T/C (dose: 36.5 mg/kg/injection, schedule: Q01DX007 (sc), vehicle: steriod suspending solution) was 57 % of control and the T/C (dose: 40.0 mg/kg/injection, schedule: Q01DX007 (sc), vehicle: steriod suspending solution) was 17 % of control and 23 % of control and 36 % of control. The T/C (dose: 41.5 mg/kg/injection, schedule: Q#A X014 (sc), vehicle: steriod suspending solution) was 40 % of control, the T/C (dose: 60.0 mg/kg/injection, schedule: Q01DX007 (sc), vehicle: steriod suspending solution) was 29 % of control and the T/C (dose: 62.5 mg/kg/injection, schedule: Q#A X014 (sc), vehicle: steriod suspending solution) was 34 % of control and 45 % of control. The T/C (dose: 83.0 mg/kg/injection, schedule: Q01DX007 (sc), vehicle: steriod suspending solution) was 38 % of control, the T/C (dose: 85.0 mg/kg/injection, schedule: Q01DX007 (sc), vehicle: steriod suspending solution) was 34 % of control and the T/C (dose: 90.0 mg/kg/injection, schedule: Q01DX007 (sc), vehicle: steriod suspending solution) was 18 % of control. The T/C (dose: 125.0 mg/kg/injection, schedule: Q01DX007 (sc), vehicle: steriod suspending solution) was 17 % of control, the T/C (dose: 135.0 mg/kg/injection, schedule: Q01DX007 (sc), vehicle: steriod suspending solution) was 19 % of control and the T/C (dose: 188.0 mg/kg/injection, schedule: Q01DX007 (sc), vehicle: steriod suspending solution) was 46 % of control. The T/C (dose: 282.0 mg/kg/injection, schedule: Q01DX007 (sc), vehicle: steriod suspending solution) was 25 % of control and 26 % of control, the T/C (dose: 300.0 mg/kg/injection, schedule: Q01DX007 (sc), vehicle: steriod suspending solution) was 34 % of control and the T/C (dose: 423.0 mg/kg/injection, schedule: Q01DX007 (sc), vehicle: steriod suspending solution) was 20 % of control and 39 % of control. For the same molecule, the T/C (dose: 500.0 mg/kg/injection, schedule: Q01DX007 (sc), vehicle: steriod suspending solution) was 3 % of control, the T/C (dose: 600.0 mg/kg/injection, schedule: Q01DX007 (sc), vehicle: steriod suspending solution) was 30 % of control and the T/C (dose: 630.0 mg/kg/injection, schedule: Q01DX007 (sc), vehicle: steriod suspending solution) was 15 % of control. For the same molecule, the T/C (dose: 900.0 mg/kg/injection, schedule: Q01DX007 (sc), vehicle: steriod suspending solution) was 27 % of control, the T/C (dose: 945.0 mg/kg/injection, schedule: Q01DX007 (sc), vehicle: steriod suspending solution) was 22 % of control and the T/C (dose: 1400.0 mg/kg/injection, schedule: Q01DX007 (sc), vehicle: steriod suspending solution) was 14 % of control.
With `COC(=O)c1cccc2c[n+]3c(cc12)-c1[nH]c2cc(OC)ccc2c1CC3` the T/C (dose: 10.0 mg/kg/injection, schedule: Q01DX007 (ip), vehicle: other) was 70 % of control, the T/C (dose: 50.0 mg/kg/injection, schedule: Q01DX007 (ip), vehicle: other) was 73 % of control and the T/C (dose: 200.0 mg/kg/injection, schedule: Q01DX007 (ip), vehicle: other) was 74 % of control.
In the case of `O=[N+]([O-])c1cccc2nsnc12`, the T/C (dose: 12.5 mg/kg/injection, schedule: Q01DX007 (ip), vehicle: carboxymethylcellulose (CMC)) is reported as 114 % of control and the T/C (dose: 25.0 mg/kg/injection, schedule: Q01DX007 (ip), vehicle: carboxymethylcellulose (CMC)) is reported as 174 % of control.
In the case of `O=c1[nH]c(=O)c2[nH]c(N=Nc3ccc(N(CCCl)CCCl)cc3)nc2[nH]1`, the T/C (dose: 6.25 mg/kg/injection, schedule: Q#A X014 (ip), vehicle: saline) is reported as 97 % of control, the T/C (dose: 12.5 mg/kg/injection, schedule: Q#A X014 (ip), vehicle: saline) is reported as 72 % of control and the T/C (dose: 25.0 mg/kg/injection, schedule: Q#A X014 (ip), vehicle: saline) is reported as 85 % of control. For the same molecule, the T/C (dose: 50.0 mg/kg/injection, schedule: Q#A X014 (ip), vehicle: saline) was 34 % of control and 49 % of control and the T/C (dose: 100.0 mg/kg/injection, schedule: Q#A X014 (ip), vehicle: saline) was 36 % of control.
With `COc1ccc(C(=O)/C(Br)=C/C(=O)O)cc1` the T/C (dose: 6.25 mg/kg/injection, schedule: Q01DX007 (ip), vehicle: water) was 99 % of control, the T/C (dose: 12.5 mg/kg/injection, schedule: Q01DX007 (ip), vehicle: water) was 82 % of control and the T/C (dose: 25.0 mg/kg/injection, schedule: Q01DX007 (ip), vehicle: water) was 108 % of control.
In the case of `C[C@]12CC[C@H](O)CC1=CC[C@@H]1[C@@H]2CC[C@]2(C)c3nc4ccccc4cc3C[C@@H]12`, the T/C (dose: 15.6 mg/kg/injection, schedule: Q01DX007 (sc), vehicle: saline) is reported as 93 % of control, the T/C (dose: 62.5 mg/kg/injection, schedule: Q01DX007 (sc), vehicle: saline) is reported as 57 % of control and the T/C (dose: 125.0 mg/kg/injection, schedule: Q01DX007 (sc), vehicle: saline) is reported as 95 % of control. The T/C (dose: 250.0 mg/kg/injection, schedule: Q01DX007 (sc), vehicle: saline) was 66 % of control and the T/C (dose: 500.0 mg/kg/injection, schedule: Q01DX007 (sc), vehicle: saline) was 93 % of control.
In the case of `O=C(CBr)c1ccc(Br)cc1`, the T/C (dose: 7.5 mg/kg/injection, schedule: Q01DX007 (ip), vehicle: other) is reported as 63 % of control, the T/C (dose: 15.0 mg/kg/injection, schedule: Q01DX007 (ip), vehicle: other) is reported as 49 % of control and 73 % of control and the T/C (dose: 20.0 mg/kg/injection, schedule: Q01DX007 (ip), vehicle: other) is reported as 42 % of control.
In the case of `ON=C1c2cc(Cl)ccc2-c2ccc(Cl)cc21`, the T/C (dose: 26.6 mg/kg/injection, schedule: Q01DX007 (ip), vehicle: carboxymethylcellulose (CMC)) is reported as 77 % of control, the T/C (dose: 40.0 mg/kg/injection, schedule: Q01DX007 (ip), vehicle: carboxymethylcellulose (CMC)) is reported as 71 % of control and the T/C (dose: 60.0 mg/kg/injection, schedule: Q01DX007 (ip), vehicle: carboxymethylcellulose (CMC)) is reported as 61 % of control. For the same molecule, the T/C (dose: 90.0 mg/kg/injection, schedule: Q01DX007 (ip), vehicle: carboxymethylcellulose (CMC)) was 57 % of control.
In the case of `CC1=C2C(=C[C@@](C)(CO)[C@@H]2O)C(=O)[C@](C)(O)C12CC2`, the T/C (dose: 0.8 mg/kg/injection, schedule: Q01DX007 (ip), vehicle: saline) is reported as 67 % of control and 78 % of control and the T/C (dose: 1.6 mg/kg/injection, schedule: Q01DX007 (ip), vehicle: saline) is reported as 45 % of control.
In the case of `O=C(Nc1ccc(C2=NCCN2)cc1)c1ccc(C(=O)Nc2ccc(C3=NCCN3)cc2)c(Cl)c1`, the T/C (dose: 18.0 mg/kg/injection, schedule: Q01DX007 (ip), vehicle: carboxymethylcellulose (CMC)) is reported as 88 % of control, the T/C (dose: 20.0 mg/kg/injection, schedule: Q01DX007 (ip), vehicle: water) is reported as 110 % of control and the T/C (dose: 37.0 mg/kg/injection, schedule: Q01DX007 (ip), vehicle: carboxymethylcellulose (CMC)) is reported as 96 % of control. For the same molecule, the T/C (dose: 40.0 mg/kg/injection, schedule: Q01DX007 (ip), vehicle: water) was 117 % of control.
With `NC(=O)CCC(NC(=O)c1ccc([N+](=O)[O-])cc1)C(=O)O` (centres undefined) the T/C (dose: 62.5 mg/kg/injection, schedule: Q01DX007 (ip), vehicle: other) was 69 % of control, the T/C (dose: 125.0 mg/kg/injection, schedule: Q01DX007 (ip), vehicle: other) was 50 % of control and the T/C (dose: 250.0 mg/kg/injection, schedule: Q01DX007 (ip), vehicle: other) was 63 % of control.
